# [ ]: non-standard residue; d: D form.
# B1: LM609: mouse monoclonal antibody, anti-αvβ3 (antibody, V domains shown)
# VH: EVQLEESGGGLVKPGGSLKLSCAASGFAFSSYDMSWVRQIPEKRLEWVAKVSSGGGSTYYLDTVQGRFTISRDNAKNTLYLQMSSLNSEDTAMYYCARHNYGSFAYWGQGTLVTVSA
# VL: ELVMTQTPATLSVTPGDSVSLSCRASQSISNHLHWYQQKSHESPRLLIKYASQSISGIPSRFSGSGSGTDFTLSINSVETEDFGMYFCQQSNSWPHTFGGGTKLEIKRA
# Assays:
# [1] = tested on: VEGF-induced angiogenesis; assay: chick CAM assay, VEGF-induced angiogenesis, intravenous inhibitors; type: in vivo; conditions: for inhibition of VEGF-induced CAM angiogenesis: VEGF 150 ng/ml, 75 μg antibody or peptide intravenously, 72 hours
# Procedure: Ten day old chick embryos were obtained from McIntyre Poultry (Lakeside, Calif.) and incubated at 37C with 60% humidity. A small hole was made through the shell at the end of the egg directly over the air sac with the use of a small crafts drill (Dremel, Division of Emerson Electric Co., Racine, Wis.). A second hole was drilled on the broad side of the egg in a region devoid of embryonic blood vessels determined previously by candling the egg. […] A 1.0 centimeter (cm)×1.0 cm square window was cut through the shell over the dropped CAM with the use of a small model grinding wheel (Dremel). The small window allowed direct access to the underlying CAM.
# Angiogenesis was induced by placing a 5 millimeter (mm)×5 mm Whatman filter disk (Whatman Filter paper No. 1) saturated with Hanks Balanced Salt Solution (HBSS, GIBCO, Grand Island, N.Y.) or HBSS containing preselected cytokines at a preselected concentration, i.e. one to test the effect on angiogenesis, on the CAM of a 10 day chick embryo in a region devoid of blood vessels and the windows were later sealed with tape. Angiogenesis was monitored by photomicroscopy after 72 hours. CAMs were snap frozen then 6 μm cryostat sections were fixed with acetone and stained by immunofluorescence as described in Example 2B and 2C with 10 μg/ml of selected anti-integrin antibodies, including those directed against αvβ5 as described in Example 1.
# Angiogenesis was first induced on 10 day old chick embryos by application of growth factor-saturated filter disks. Specifically, in the first assays, angiogenesis was induced by exposure to either bFGF or VEGF, each at a concentration of 150 ng/ml.
# For application of growth factors, during the candling procedures, prominent blood vessels were selected and marks were made on the egg shell to indicate their positions. The holes were drilled in the shell, the CAMs were dropped and growth factor-saturated filter papers were then separately placed on the CAMs as described above. The windows were sealed with sterile tape and the embryos were replaced in the incubator.
# Twenty four hours later, a second small window was carefully cut on the lateral side of the egg shell directly over prominent blood vessels selected previously. The outer egg shell was carefully removed leaving the embryonic membranes intact. The shell membrane was made transparent with a small drop of mineral oil (Perkin-Elmer Corp, Norwalk, Conn.) which allowed the blood vessels to be visualized easily. Then, phosphate buffered saline (PBS), 75 μg of purified sterile anti-integrin antibodies or 75 μg of synthetic peptides (cyclic peptide RGDfV, SEQ ID NO 4 and control cyclic peptide RADfV, SEQ ID NO 5) in PBS were injected into blood vessels apparent on the growth factor-induced CAMs. The windows were sealed with tape and the embryos were allowed to incubate until 72 hours.
# The filter discs and representative surrounding CAM tissues were photographed in a stereomicroscope (FIGS. 3A–3F and FIGS. 5A–5F) and the mean angiogenic index +/− the standard error was determined for 12 CAMs per condition (FIGS. 4A–4B and FIGS. 6A–6B). Angiogenesis was scored for each embryo in a double blind manner by analyzing the number and extent of branching of blood vessels within the area of each disc. The scores ranged from 1 (low) to 4 (high) and the angiogenesis index was determined by subtracting a background of 1 from all data.
# In a further assay performed in the CAM model having VEGF-induced angiogenesis, 2 μg of peptides 85189 (SEQ ID NO 9) and the inert salt counterpart 121974 were separately intravenously injected as previously described. The effect of the peptides was assessed in comparison to that of control peptide 69601 (SEQ ID NO 5) and to untreated (labeled as NT) preparations.
# The effect of the peptides of VEGF-induced angiogenesis is measured through a determination of the number of blood vessel branch points. […]
# [2] = tested on: bFGF-induced angiogenesis; assay: in vivo rabbit eye model assay, bFGF-induced corneal angiogenesis
# Procedure: Hydron polymer pellets containing growth factor and monoclonal antibodies (mAbs) were prepared as described by D'Amato, et al., Proc. Natl. Acad. Sci., 91:4082–4085 (1994). […] In addition, hydron pellets were prepared which contained either 40 μg of the mAb P1F6 (anti-αvβ5) or the control antibody, LM609 (anti-αvβ3), in PBS.
# All of the mAbs tested were purified from ascites fluid using Protein-A Sepharose CL-4B affinity column chromatography according to well-known methods. The eluted immunoglobulin was then dialyzed against PBS and treated with Detoxi-gel (Pierce Chemicals, Rockford, Ill.) to remove endotoxin. […] Monoclonal antibodies were therefore tested for the presence of endotoxin with the Chromogenic Limulus Amebocyte Lysate Assay (BioWhittaker, Walkersville, Md.) and only those mAbs without detectable endotoxin were used in the rabbit eye model assay.
# Approximately 12 μl of casting material was placed into each peg and polymerized overnight in a sterile hood. Pellets were then sterilized by ultraviolet irradiation.
# A series of eight animals were used for paired eye experiments where each animal received a Hydron implant containing a preselected cytokine with a preselected antibody or control immunoglobulin. Specifically, for each rabbit, one cornea was surgically implanted with a Hydron pellet containing either bFGF or VEGF in conjunction with mAb P1F6 and the other cornea was treated with either bFGF or VEGF in conjunction with MAb LM609. Individual pellets were implanted into surgically created “pockets” formed in the mid-stroma of the cornea of rabbits. The surgical procedure was done under sterile technique using a Wild model M691 operating microscope equipped with a beamsplitter to which was mounted a camera for photographically recording individual corneas. A 3 mm by 5 mm “pocket” was created in the corneal stroma by making a 3 mm incision to half the corneal thickness with a 69 Beaver blade. The stroma was dissected peripherally using an iris spatula and the pellet was implanted with its peripheral margin 2 mm from the limbus. […]
# The effects of specific mAb integrin immunoreactivity on the above cytokine-induced angiogenesis is also quantified as shown in FIGS. 2A and 2B. […] Photographs were recorded on Kodak Ektachrome 64T slide film and images were converted for computer-assisted quantitation using Biorad's Molecular Analyst 1.1 software after acquisition through a Model GS670 imaging densitometer. […]
# Each experiment consisted of eight rabbits in which one eye received a pellet comprising 100 nanograms (ng) bFGF and the other eye received a pellet comprising 1 microgram (ug) VEGF. […] After 7 days, the cornea were evaluated as described above.
Molecule,inhibition of VEGF-induced CAM angiogenesis [1],"corneal blood vessel growth at 7 days, bFGF-stimulated eyes ([2]; peptide s.q. 50 ug per kg initial, 20 ug/kg daily, 100 ng bFGF pellet)",inhibition of VEGF-induced CAM angiogenesis (number of blood vessel branch points) ([1]; 2 μg peptide intravenously),"amount of corneal blood vessel growth compared to controls ([2]; peptide s.q. 50 ug per kg initial, 20 ug/kg daily, 7 days, 100 ng bFGF pellet)","effect on CAM angiogenesis induced by VEGF (angiogenesis index) ([1]; VEGF 1.0 μg/ml, antibodies 75 μg per embryo, calphostin C 100 nM)","reduction of bFGF-induced angiogenesis (mean neovascular area) ([2]; 40 μg mAb in pellet, compared to paired eye treated with P1F6, p<0.005)","inhibition of bFGF-induced corneal angiogenesis ([2]; Hydron pellet with 750 ng bFGF and 40 μg mAb, postoperative day 10)"
"cyclo(Arg-Ala-Asp-D-Phe-Val) (cyclo(RAD[dF]V); SMILES CC(C)[C@@H]1NC(=O)[C@@H](Cc2ccccc2)NC(=O)[C@H](CC(=O)O)NC(=O)[C@H](C)NC(=O)[C@H](CCCNC(=N)N)NC1=O) [peptide 69601, reference compound]",did not effect angiogenesis,substantial corneal blood vessel growth,,,,,
cyclo(Arg-Gly-Asp-D-Phe-NMeVal) [peptide 85189],,,completely inhibited angiogenesis,less than 50%,,,
B1,little effect on angiogenesis,,,,failed to do so,86%,inhibited

# — patent US7053041B1, “Methods and compositions useful for inhibition of αvβ5mediated angiogenesis” (The Scripps Research Institute, priority 1996, dated 2006)
